{
  "source": "patent US20050282873A1",
  "about": "“Epothilone derivative for the treatment of hepatoma and other cancer diseases” (priority 2002, published 2005)",
  "type_in_all_cases": "in vivo, human",
  "key": {"[1]": {"system": "advanced colorectal cancer", "test": "Open-label, single-arm, two-stage multicenter efficacy study in advanced colorectal cancer, once every three weeks", "settings": "i.v. 6.0 mg/m^2, 5 minute bolus infusion once every three weeks; colorectal cancer patients who failed fluoropyrimidine and Irinotecan or oxaliplatin; trial ongoing", "description": "An open-label, single-arm, two-stage, multicenter study to investigate the efficacy of 7,11-Dihydroxy-8,8,10,12,16-pentamethyl-3-[1-methyl-2-(2-methyl-thiazol-4-yl)-vinyl]4,17-dioxa-bicyclo[14.1.0]heptadecane-5,9-dione administered intravenously at 6.0 mg/m^2 as a 5 minute bolus infusion repeated once every three weeks in patients with advanced colorectal cancer. 7,11-Dihydroxy-8,8,10,12,16-pentamethyl-3-[1-methyl-2-(2-methyl-thiazol-4-yl)vinyl]4,17-dioxa-bicyclo[14.1.0]heptadecane-5,9-dione is administered once every three weeks until either progression of disease or unacceptable toxicities occurs. Each three-week period is considered one cycle. Patients are evaluated for tumor response one week after the last dose of every third cycle, starting with Cycle 3. Patients may, at any time, have their dose reduced to 5.4 mg/m^2 or 4.8 mg/m^2 if in the investigator's opinion the original dose is either intolerable or unsafe for any given patient, and without such a dose reduction the patient will be forced to withdraw from the study. All dose modifications are captured on the Dose Administration Record CRF.\nThe study period for efficacy evaluation is up to nine cycles. […]"}, "[2]": {"system": "androgen-independent prostate cancer", "test": "Open-label, single-arm, two-stage multicenter efficacy study in androgen-independent prostate cancer", "settings": "i.v. 2.5 mg/m^2, 5 minute bolus infusion weekly for three weeks, one week off; chemo-naïve or failed one prior chemotherapy; trial ongoing", "description": "Open-label, single-arm, two-stage, multicenter study to investigate the efficacy of EPO906 administered intravenously at 2.5 mg/m^2 as a 5 minute bolus infusion once a week for three weeks followed by one week off in patients with androgen-independent prostate cancer who are chemo-naïve or who have failed one prior chemotherapy. 7,11-Dihydroxy-8,8,10,12,16-pentamethyl-3-[1-methyl-2-(2-methyl-thiazol-4-yl)-vinyl]-4,17-dioxa-bicyclo[14.1.0]heptadecane-5,9-dione is administered once every week for three weeks followed by a one-week drug holiday until either progression of disease or unacceptable toxicities occurs. Each four-week period is considered one cycle. Patients are evaluated for tumor response one week after their last dose of every other cycle, starting with Cycle 2. Patients may, at any time, have their dose reduced to 2.0 mg/m^2 if in the investigator's opinion the original dose is either intolerable or unsafe for any given patient, and without such a dose reduction the patient will be forced to withdraw from the study. All dose modifications are captured on the dose administration record CRF. The study period for efficacy evaluation is up to six cycles.\nPatients taking PC-SPES must discontinue therapy for a minimum of 4 weeks. […]"}, "[3]": {"system": "advanced colorectal cancer", "test": "Open-label, single-arm, two-stage multicenter efficacy study in advanced colorectal cancer, weekly regimen", "settings": "i.v. 2.5 mg/m2, 5 minute bolus infusion weekly for three weeks, one week off; colorectal cancer patients who failed fluoropyrimidine and Irinotecan or oxaliplatin; trial ongoing", "description": "An open-label, single-arm, two-stage multicenter study to investigate the efficacy of 7,11-Dihydroxy-8,8,10,12,16-pentamethyl-3-[1-methyl-2-(2-methyl-thiazol-4-yl)vinyl]-4,17-dioxa-bicyclo[14.1.0]heptadecane-5,9-dione administered intravenously at 2.5 mg/m2 as a 5 minute bolus infusion repeated every week for three weeks followed by one week off in patients with advanced colorectal cancer. 7,11-Dihydroxy-8,8,10,12,16-pentamethyl-3-[1-methyl-2-(2-methyl-thiazol-4-yl)-vinyl-]-4,17-dioxa-bicyclo[14.1.0]heptadecane-5,9-dione is administered once every week for three weeks followed by a one-week drug holiday until either progression of disease or unacceptable toxicities occurs. Each four-week period is considered one cycle. Patients are evaluated for tumor response one week after their last dose of every other cycle, starting with Cycle 2. Patients may, at any time, have their dose reduced to 2.0 mg/m^2 if in the investigator's opinion the original dose is either intolerable or unsafe for any given patient, and without such a dose reduction the patient will be forced to withdraw from the study. All dose modifications are captured on the dose administration record CRF. The study period for efficacy evaluation is up to six cycles. […]"}, "[4]": {"system": "ovarian, primary Fallopian, or primary peritoneal cancer", "test": "Open-label, single-arm, two-stage, multi-center efficacy study in ovarian, primary Fallopian or primary peritoneal cancer patients", "settings": "i.v. 2.5 mg/m2, 5 minute bolus infusion weekly for three weeks, one week off; patients failed or relapsed within six months of first-line taxane/platinum therapy; study ongoing", "description": "An open-label, single-arm, two-stage, multi-center study investigating the efficacy of 7,11-Dihydroxy-8,8,10,12,16-pentamethyl-3-[1-methyl-2-(2-methyl-thiazol-4-yl)-vinyl]-4,17-dioxa-bicyclo[14.1.0]heptadecane-5,9-dione administered intravenously at 2.5 mg/m2 as a 5 minute bolus infusion repeated every week for three weeks followed by one week off in patients who have ovarian, primary Fallopian, or primary peritoneal cancer. […] Chemotherapies other than taxane/platinum or an additional agent to this regimen will not be allowed. […] A third therapeutic agent administered as part of the taxane/platinum therapy is permitted for refractory disease if all other criteria are met."}, "[5]": {"system": "advanced renal cancer", "test": "Open-label, single-arm, two-stage multicenter efficacy study in patients with advanced renal cancer", "settings": "i.v. 2.5 mg/m2, 5 minute bolus infusion weekly for three weeks, one week off, trial ongoing", "description": "An open-label, single-arm, two-stage multicenter study investigating the efficacy of 7,11-Dihydroxy-8,8,10,12,16-pentamethyl-3-[1-methyl-2-(2-methyl-thiazol-4-yl)-viny]-4,17-dioxa-bicyclo[14.1.0]heptadecane-5,9-dione administered intravenously at 2.5 mg/m2 as a 5 minute bolus infusion repeated every week for three weeks followed by one week off in patients with advanced renal cancer. 7,11-Dihydroxy-8,8,10,12,16-pentamethyl-3-[1-methyl-2-(2-methyl-thiazol-4-yl)-vinyl]-4,17-dioxa-bicyclo[14.1.0]heptadecane-5,9-dione is administered once every week for three weeks followed by a one-week drug holiday until either progression of disease or unacceptable toxicities occurs. Each four-week period is considered one cycle. Patients are evaluated for tumor response one week after their last dose of every other cycle, starting with Cycle 2. Patients may, at any time, have their dose reduced to 2.0 mg/m2 if in the investigators opinion the original dose is either intolerable or unsafe for any given patient, and without such a dose reduction the patient would be forced to withdraw from the study. All dose modifications are captured on the dose administration record CRF. The study period for efficacy evaluation is up to six cycles. The study will enroll patients with histologically confirmed transitional cell carcinoma of the kidney. […]"}},
  "data": [
    {"smiles": "CC(=Cc1csc(C)n1)C1CC2OC2(C)CCCC(C)C(O)C(C)C(=O)C(C)(C)C(O)CC(=O)O1", "note": "(centres unmarked) [7,11-Dihydroxy-8,8,10,12,16-pentamethyl-3-[1-methyl-2-(2-methyl-thiazol-4-yl)-vinyl]-4,17-dioxa-bicyclo[14.1.0]heptadecane-5,9-dione]", "values": [
      {"measurement": "response of patients in the trial", "setting": "[1]", "result": "Several patients shown a positive response"},
      {"measurement": "response of patients in the trial", "setting": "[2]", "result": "Several patients show a positive response"},
      {"measurement": "response of patients in the trial", "setting": "[3]", "result": "Several patients shown a positive response"},
      {"measurement": "response of patients in the study", "setting": "[4]", "result": "Several patients show a positive response"},
      {"measurement": "response of patients in the study", "setting": "[5]", "result": "Several patients show a positive response"}
    ]}
  ]
}
